What was measured:
A549 = assay: Cytotoxicity against human A549 cells assessed as reduction in cell viability by MTT assay; format: functional, cell-based
HeLa = assay: Cytotoxicity against human HeLa cells assessed as reduction in cell viability by MTT assay; format: functional, cell-based
Vero = assay: Cytotoxicity against African green monkey Vero cells assessed as reduction in cell viability by MTT assay; format: cell-based; settings: Chlorocebus sabaeus
KB = assay: Cytotoxicity against human KB cells assessed as reduction in cell viability by MTT assay; format: functional, cell-based
HT-29 = assay: Cytotoxicity against human HT-29 cells assessed as reduction in cell viability by MTT assay; format: functional, cell-based

C[C@H]1[C@H](C)CC[C@]2(C(=O)O)CC[C@]3(COC(=O)/C=C/c4ccc(O)cc4)C(=CC[C@@H]4[C@@]5(C)CC[C@H](O)C(C)(C)[C@@H]5CC[C@]43C)[C@H]12
IC50 (A549): 2.2 µM

CO[C@H]1[C@@H](O)[C@H](O[C@H]2CC[C@@]3(C)[C@H](CC[C@@H]4[C@@H]3CC[C@]3(C)[C@@H](C5=CC(=O)OC5)[C@@H](O)C[C@]43O)C2)O[C@@H](C)[C@@H]1O[C@@H]1O[C@H](CO[C@@H]2O[C@H](CO)[C@@H](O)[C@H](O)[C@H]2O)[C@@H](O)[C@H](O)[C@H]1O
IC50 (HeLa): > 10 µM | IC50 (Vero): > 10 µM | IC50 (KB): > 10 µM | IC50 (HT-29): > 10 µM

CO[C@H]1[C@@H](O)[C@H](O[C@H]2CC[C@@]3(C)[C@H](CC[C@@H]4[C@@H]3CC[C@]3(C)[C@@H]([C@H]5COC(=O)C5)CC[C@]43O)C2)O[C@@H](C)[C@@H]1O[C@@H]1O[C@H](CO[C@@H]2O[C@H](CO)[C@@H](O)[C@H](O)[C@H]2O)[C@@H](O)[C@H](O)[C@H]1O
IC50 (HeLa): > 10 µM | IC50 (Vero): > 10 µM | IC50 (KB): > 10 µM | IC50 (HT-29): > 10 µM

CO[C@@H]1[C@@H](O[C@@H]2O[C@H](CO[C@@H]3O[C@H](CO)[C@@H](O)[C@H](O)[C@H]3O)[C@@H](O)[C@H](O)[C@H]2O)[C@H](C)O[C@@H](O[C@H]2CC[C@@]3(C)[C@H](CC[C@@H]4[C@@H]3CC[C@]3(C)[C@@H]([C@H]5COC(=O)C5)CC[C@]43O)C2)[C@@H]1OC(C)=O
IC50 (HeLa): > 10 µM | IC50 (Vero): > 10 µM | IC50 (KB): > 10 µM | IC50 (HT-29): > 10 µM

CO[C@H]1[C@@H](O)[C@H](C)O[C@@H](O[C@H]2CC[C@@]3(C)[C@H](CC[C@@H]4[C@@H]3CC[C@]3(C)[C@@H](C5=CC(=O)OC5)[C@@H](O)C[C@]43O)C2)[C@@H]1O
IC50 (HeLa): 6.2 µM | IC50 (Vero): 0.02 µM | IC50 (KB): 0.5 µM | IC50 (HT-29): 0.3 µM

CO[C@H]1[C@@H](O)[C@H](O[C@H]2CC[C@@]3(C)[C@H](CC[C@@H]4[C@@H]3CC[C@]3(C)[C@@H]([C@H]5COC(=O)C5)CC[C@]43O)C2)O[C@@H](C)[C@@H]1O[C@@H]1O[C@H](CO)[C@@H](O)[C@H](O)[C@H]1O
IC50 (HeLa): 6.2 µM | IC50 (Vero): > 10 µM | IC50 (KB): 6.6 µM | IC50 (HT-29): > 10 µM

CO[C@@H]1[C@@H](O)[C@H](C)O[C@@H](O[C@H]2CC[C@@]3(C)[C@H](CC[C@@H]4[C@@H]3CC[C@]3(C)[C@@H](C5=CC(=O)OC5)[C@@H](O)C[C@]43O)C2)[C@@H]1O
IC50 (HeLa): 0.08 µM | IC50 (Vero): 1.3 µM | IC50 (KB): 1.7 µM | IC50 (HT-29): 0.2 µM

CO[C@H]1[C@@H](O)[C@H](C)O[C@@H](O[C@H]2CC[C@@]3(C)[C@H](CC[C@@H]4[C@@H]3CC[C@]3(C)[C@@H]([C@H]5COC(=O)C5)CC[C@]43O)C2)[C@@H]1O
IC50 (HeLa): 9.3 µM | IC50 (Vero): 9.2 µM | IC50 (KB): 1.9 µM | IC50 (HT-29): 4.1 µM

CO[C@@H]1[C@@H](O)[C@H](O[C@H]2CC[C@@]3(C)[C@H](CC[C@@H]4[C@@H]3CC[C@]3(C)[C@@H]([C@H]5COC(=O)C5)CC[C@]43O)C2)O[C@@H](C)[C@@H]1O[C@@H]1O[C@H](CO)[C@@H](O)[C@H](O)[C@H]1O
IC50 (HeLa): 1.1 µM | IC50 (Vero): 0.5 µM | IC50 (KB): 1.7 µM | IC50 (HT-29): 7.1 µM

C[C@H]1[C@H](C)CC[C@]2(C(=O)O)CC[C@]3(COC(=O)/C=C\c4ccc(O)cc4)C(=CC[C@@H]4[C@@]5(C)CC[C@H](O)C(C)(C)[C@@H]5CC[C@]43C)[C@H]12
IC50 (HeLa): 6.1 µM

CO[C@@H]1[C@@H](O)[C@H](O[C@H]2CC[C@@]3(C)[C@H](CC[C@@H]4[C@@H]3CC[C@]3(C)[C@@H](C5=CC(=O)OC5)[C@@H](O)C[C@]43O)C2)O[C@@H](C)[C@@H]1O[C@@H]1O[C@H](CO[C@@H]2O[C@H](CO)[C@@H](O)[C@H](O)[C@H]2O)[C@@H](O)[C@H](O)[C@H]1O
IC50 (HeLa): > 10 µM | IC50 (Vero): > 10 µM | IC50 (KB): > 10 µM | IC50 (HT-29): > 10 µM

CC1(C)CC[C@]2(C(=O)O)CC[C@]3(COC(=O)/C=C\c4ccc(O)cc4)C(=CC[C@@H]4[C@@]5(C)CC[C@H](O)C(C)(C)[C@@H]5CC[C@]43C)[C@@H]2C1
IC50 (HT-29): 0.6 µM

CO[C@@H]1[C@@H](O)[C@H](C)O[C@@H](O[C@H]2CC[C@@]3(C)[C@H](CC[C@@H]4[C@@H]3CC[C@]3(C)[C@@H]([C@H]5COC(=O)C5)CC[C@]43O)C2)[C@@H]1O
IC50 (HeLa): 0.5 µM | IC50 (Vero): 0.6 µM | IC50 (KB): 0.03 µM | IC50 (HT-29): 0.2 µM

COc1cccc2c1C(=O)c1c(O)c3c(c(O)c1C2=O)C[C@@](O)(C(=O)CO)C[C@@H]3O[C@H]1C[C@H](N)[C@H](O)[C@H](C)O1 [DOXORUBICIN]
IC50 (HeLa): 0.14 µM | IC50 (Vero): 1.3 µM | IC50 (KB): 0.2 µM | IC50 (HT-29): 0.9 µM

— ChEMBL document CHEMBL4414675, “Cytotoxic 20,22-Dihydrodigitoxigenin Glycosides and Other Constituents of Vallaris glabra Stems” (J Nat Prod, 2019)
